Measured values: US20150202304A1, “ENCAPSULATION OF IMMISCIBLE PHASES IN SILK FIBROIN BIOMATERIALS” (TUFTS UNIVERSITY, priority 2012, published 2015)

Test: Release of adenosine from dissolvable silk films in PBS
Assay type: physicochemical
Conditions: within 15 minutes of exposure to 37° C. PBS; ~0.5, 0.25 or 0.125 mg adenosine per 0.2 mm^2 film
Procedure: Rapid dissolution of films loaded with a dye and release of the dye from the films occur when the films are immersed in ˜37° C. buffer (FIG. 10). Dissolvable silk films loaded with an active agent (e.g., ˜0.5, 0.25 or 0.125 mg of adenosine per 0.2 mm^2 film) released the majority of the drug load (approx. 80%) within 15 minutes of exposure to 37° C. phosphate buffered saline (PBS) (Data not shown).

drug load released from dissolvable silk films: approx. 80%
SMILES: Nc1ncnc2c1ncn2[C@@H]1O[C@H](CO)[C@@H](O)[C@H]1O [adenosine]
